Assay results as given in patent US9187465B2, “Oxazole tyrosine kinase inhibitors” (Sareum Limited, priority 2007, dated 2015).

What was measured:
human FLT4 = biological target: T1, human FLT4 (Homo sapiens, UniProt P35916); assay: FLT4 kinase assay (DELFIA enzyme inhibition); format: biochemical; settings: read-out: FLT4 IC50
T1 construct: a construct expressing the human FLT4 (789-1207) with an amino terminal GST tag; host or cells: Sf9 insect cells (baculovirus)
Description: A GST-kinase fusion protein of 70 KDa was produced using sf9 baculovirus expression system, with a construct expressing the human FLT4 (789-1207) with an amino terminal GST tag. The protein was purified by affinity chromatography using glutathione-agarose followed by separation on a gel filtration column.
FLT4 enzyme activity is determined using a Dissociation Enhanced Lanthanide Fluorescent Immunoassay (DELFIA) with a peptide substrate derived from the MET (Tyr 1253) peptide […] with a core sequence […].
The amount of phosphorylated peptide produced is detected by means of a phospho-Tyrosine specific Europium-labelled antibody using Time-Resolved Fluorescence at Excitation 360-35 nm and Emission 620-35 nm.
Assay reactions are set up in a 25 uL final volume on a 96 well plate. […] The reaction is allowed to proceed for 30 minutes at room temperature before stopping with 100 uL Stop solution comprising of 100 mM EDTA, 1×BSA blocker in TBS (Perbio) and 0.05% Surfact-Amps20 (Perbio).
The stopped reaction is transferred to a black 96-well Neutravidin-coated plate (Perbio) and incubated for 30 minutes to capture the biotinylated peptide substrate. After washing wells 3 times with 200 uL TBS/T buffer, Anti-Phospho-Tyr-100 antibody labelled with Eu—N1 (Perkin Elmer AD0159) is added to all wells for 60 minutes at room temperature. After a repeat washing step, DELFIA Enhancement solution (Perkin Elmer) is added to all wells for 5 minutes and the fluorescence measured on a plate reader Analyst HT (Molecular Devices).
The % inhibition of the activity is calculated and plotted in order to determine the concentration of test compound required to inhibit 50% of the enzyme activity (IC50).

human Aurora A = biological target: T2, human Aurora A (Homo sapiens, UniProt O14965); assay: Aurora A kinase assay (DELFIA enzyme inhibition); format: biochemical; settings: read-out: Aurora A IC50
T2 construct: Histidine tag (N); host or cells: Sf9 insect cells (baculovirus)
T2 sequence (O14965 1-403): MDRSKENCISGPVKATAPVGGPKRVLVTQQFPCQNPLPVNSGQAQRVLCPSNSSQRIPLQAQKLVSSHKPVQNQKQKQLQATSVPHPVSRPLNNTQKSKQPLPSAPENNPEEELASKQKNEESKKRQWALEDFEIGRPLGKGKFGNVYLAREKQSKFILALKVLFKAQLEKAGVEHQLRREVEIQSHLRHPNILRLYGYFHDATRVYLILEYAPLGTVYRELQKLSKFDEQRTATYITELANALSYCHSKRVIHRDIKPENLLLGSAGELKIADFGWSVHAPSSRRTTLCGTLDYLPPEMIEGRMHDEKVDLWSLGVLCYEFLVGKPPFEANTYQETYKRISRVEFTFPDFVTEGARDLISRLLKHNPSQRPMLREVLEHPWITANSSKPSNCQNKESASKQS
Description: The protein was purified by one-step affinity chromatography using nickel-agarose […]
Assay reactions are set up in a 25 uL final volume on a 96 well plate. […] The reaction is allowed to proceed for 30 minutes at room temperature before stopping with 100 μL Stop solution comprising of 100 mM EDTA, 1×BSA blocker in TBS (Perbio) and 0.05% Surfact-Amps20 (Perbio).
The stopped reaction is transferred to a black 96-well Neutravidin-coated plate (Perbio) and incubated for 30 minutes to capture the biotinylated peptide substrate. […] After repeating the washing step, the plate is further incubated for one hour with Europium-labelled anti-rabbit antibody (Perkin Elmer AD0105). The wash step is repeated for a final time before DELFIA Enhancement solution (Perkin Elmer) is added to all wells for 5 minutes and the fluorescence measured on a plate reader Analyst HT (Molecular Devices).

T1 sequence (P35916 789-1207): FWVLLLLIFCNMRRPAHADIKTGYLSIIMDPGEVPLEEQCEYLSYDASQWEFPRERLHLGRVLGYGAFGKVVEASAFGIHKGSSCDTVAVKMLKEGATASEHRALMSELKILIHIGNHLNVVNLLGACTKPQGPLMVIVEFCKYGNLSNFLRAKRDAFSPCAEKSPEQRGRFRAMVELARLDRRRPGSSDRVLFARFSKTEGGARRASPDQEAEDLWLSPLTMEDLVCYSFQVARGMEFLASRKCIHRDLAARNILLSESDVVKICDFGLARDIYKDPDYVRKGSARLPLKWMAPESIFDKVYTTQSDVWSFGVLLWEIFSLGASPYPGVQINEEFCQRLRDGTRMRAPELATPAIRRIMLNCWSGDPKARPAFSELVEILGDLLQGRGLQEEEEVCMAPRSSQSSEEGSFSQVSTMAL

IC50 (human FLT4) [µM]	IC50 (human Aurora A) [µM]	SMILES
< 10	< 10	NC(=O)c1ccc(-c2oc(-c3c(F)cccc3F)nc2C(N)=O)cc1 [Example F-17, 5-(4-carbamoylphenyl)-2-(2,6-difluorophenyl)oxazole-4-carboxamide]
< 10	< 100	CC(=O)Nc1ccc(-c2oc(-c3c(F)cccc3F)nc2C(N)=O)cc1 [Example F-23, 5-(4-acetamidophenyl)-2-(2,6-difluorophenyl)oxazole-4-carboxamide]
< 10	< 100	NC(=O)c1nc(-c2c(F)cccc2F)oc1-c1cccc(C(=O)N2CCCCC2)c1 [Example F-31, 2-(2,6-Difluorophenyl)-5-(3-(piperidine-1-carbonyl)phenyl)oxazole-4-carboxamide]
< 10	< 10	NC(=O)c1nc(-c2c(F)cccc2F)oc1-c1ccc(NCCN2CCCCC2)cc1 [Example F-32, 2-(2,6-difluorophenyl)-5-(4-(2-(piperidin-1-yl)ethylamino)phenyl)oxazole-4-carboxamide]
< 10	< 10	CN(C)CCNc1ccc(-c2oc(-c3c(F)cccc3F)nc2C(N)=O)cc1 [Example F-33, 2-(2,6-difluorophenyl)-5-(4-(2-(dimethylamino)ethylamino)phenyl)oxazole-4-carboxamide]
< 10	< 10	NC(=O)c1nc(-c2c(F)cccc2F)oc1-c1ccc(NCCN2CCOCC2)cc1 [Example F-34, 2-(2,6-difluorophenyl)-5-(4-(2-morpholinoethylamino)phenyl)oxazole-4-carboxamide]
< 10	< 10	NC(=O)c1nc(-c2cccnc2)oc1-c1ccc(N2CCNCC2)cc1 [Example M-13, 5-(4-(piperazin-1-yl)phenyl)-2-(pyridin-3-yl)oxazole-4-carboxamide]
< 10	< 10	NC(=O)c1nc(-c2ccncc2)oc1-c1ccc(N2CCNCC2)cc1 [Example M-14, 5-(4-(piperazin-1-yl)phenyl)-2-(pyridin-4-yl)oxazole-4-carboxamide]
< 10	< 10	NC(=O)c1nc(-c2ccc3[nH]ccc3c2)oc1-c1ccc(N2CCNCC2)cc1 [Example M-15, 2-(1H-indol-5-yl)-5-(4-(piperazin-1-yl)phenyl)oxazole-4-carboxamide]
< 10	< 10	NC(=O)c1nc(-c2ccc3cc[nH]c3c2)oc1-c1ccc(N2CCNCC2)cc1 [Example M-16, 2-(1H-indol-6-yl)-5-(4-(piperazin-1-yl)phenyl)oxazole-4-carboxamide]
< 10	< 10	NC(=O)c1nc(-c2ccnc3[nH]ccc23)oc1-c1ccc(N2CCNCC2)cc1 [Example M-18, 5-(4-(piperazin-1-yl)phenyl)-2-(1H-pyrrolo[2,3-b]pyridin-4-yl)oxazole-4-carboxamide]
< 10	< 10	COc1ccc(-c2oc(-c3cc[nH]n3)nc2C(N)=O)cc1 [Example N-1, 5-(4-methoxyphenyl)-2-(1H-pyrazol-5-yl)oxazole-4-carboxamide]
< 100	< 100	COc1ccc(-c2oc(-c3cccc(C)c3)nc2C(N)=O)cc1 [Example N-10, 5-(4-methoxyphenyl)-2-m-tolyloxazole-4-carboxamide]
< 10	< 10	NC(=O)c1nc(-c2c(F)cccc2F)oc1Nc1ccccc1 [Example O-1, 2-(2,6-difluorophenyl)-5-(phenylamino)oxazole-4-carboxamide]
< 10	< 10	CS(=O)(=O)c1cccc(Nc2oc(-c3c(F)cccc3F)nc2C(N)=O)c1 [Example Q-4, 2-(2,6-difluorophenyl)-5-(3-(methylsulfonyl)phenylamino)oxazole-4-carboxamide]
< 10	< 100	COc1ccccc1Nc1oc(-c2c(F)cccc2F)nc1C(N)=O [Example Q-5, 2-(2,6-difluorophenyl)-5-(2-methoxyphenylamino)oxazole-4-carboxamide]
< 100	< 100	COc1cccc(Nc2oc(-c3c(F)cccc3F)nc2C(N)=O)c1 [Example Q-6, 2-(2,6-difluorophenyl)-5-(3-methoxyphenylamino)oxazole-4-carboxamide]
< 10	< 10	NC(=O)c1nc(-c2c(F)cccc2F)oc1Nc1ccc(N2CCC(N)CC2)cc1 [Example Q-17, 5-(4-(4-aminopiperidin-1-yl)phenylamino)-2-(2,6-difluorophenyl)oxazole-4-carboxamide]
< 10	< 10	NCC1CCN(c2ccc(Nc3oc(-c4c(F)cccc4F)nc3C(N)=O)cc2)CC1 [Example Q-18, 5-(4-(4-(aminomethyl)piperidin-1-yl)phenylamino)-2-(2,6-difluorophenyl)oxazole-4-carboxamide]
< 10	< 100	COc1ccc(Nc2oc(-c3c(F)cccc3F)nc2C(N)=O)cc1OC [Example Q-39, 2-(2,6-difluorophenyl)-5-(3,4-dimethoxyphenylamino)oxazole-4-carboxamide]
< 100	< 100	NC(=O)c1nc(-c2c(F)cccc2F)oc1Nc1ccc2c(c1)OCO2 [Example Q-41, 5-(benzo[d][1,3]dioxol-5-ylamino)-2-(2,6-difluorophenyl)oxazole-4-carboxamide]
< 10	< 100	NC(=O)c1nc(-c2c(F)cccc2F)oc1Nc1ccc(OC(F)(F)F)cc1 [Example Q-42, 2-(2,6-difluorophenyl)-5-(4-(trifluoromethoxy)phenylamino)oxazole-4-carboxamide]
< 10	< 100	CS(=O)(=O)c1ccc(Nc2oc(-c3c(F)cccc3F)nc2C(N)=O)c(F)c1 [Example Q-43, 2-(2,6-difluorophenyl)-5-(2-fluoro-4-(methylsulfonyl)phenylamino)oxazole-4-carboxamide]
< 10	< 100	CS(=O)(=O)c1ccc(F)c(Nc2oc(-c3c(F)cccc3F)nc2C(N)=O)c1 [Example Q-44, 2-(2,6-difluorophenyl)-5-(2-fluoro-5-(methylsulfonyl)phenylamino)oxazole-4-carboxamide]
< 10	< 10	NC(=O)c1nc(-c2c(F)cccc2F)oc1Nc1cccnc1 [Example Q-45, 2-(2,6-difluorophenyl)-5-(pyridin-3-ylamino)oxazole-4-carboxamide]
< 10	< 10	NC(=O)c1nc(-c2c(F)cccc2F)oc1Nc1ccc(C2CCNCC2)cc1 [Example Q-46, 2-(2,6-difluorophenyl)-5-(4-(piperidin-4-yl)phenylamino)oxazole-4-carboxamide]
< 10	< 10	NC(=O)c1nc(-c2c(F)cccc2F)oc1Nc1ccc(N2CCOCC2)nc1 [Example Q-48, 2-(2,6-difluorophenyl)-5-(6-morpholinopyridin-3-ylamino)oxazole-4-carboxamide]
< 10	< 10	CN1CCN(c2ccc(Nc3oc(-c4c(F)cccc4F)nc3C(N)=O)cn2)CC1 [Example Q-49, 2-(2,6-difluorophenyl)-5-(6-(4-methylpiperazin-1-yl)pyridin-3-ylamino)oxazole-4-carboxamide]
< 10	< 10	NC(=O)c1nc(-c2c(F)cccc2F)oc1Nc1ccc(C(=O)NCC2CCNCC2)cc1 [Example Q-50, 5-(4-((piperidin-4-ylmethyl)carbamoyl)phenylamino)-2-(2,6-difluorophenyl)oxazole-4-carboxamide]
< 10	< 10	NCCCNC(=O)c1ccc(Nc2oc(-c3c(F)cccc3F)nc2C(N)=O)cc1 [Example Q-51, 5-(4-((3-aminopropyl)carbamoyl)phenylamino)-2-(2,6-difluorophenyl)oxazole-4-carboxamide]
